Consider one compound from paper PMC12591484 (PLOS One, 2025).

For test [1], the target named is T1, α1M236Cβ3γ2L GABAA receptors (Homo sapiens, UniProt P14867+P18507+P28472, M263C).
T1 construct: expressed in transfected cells; host or cells: Xenopus oocytes injected with capped mRNA, 1α:1β:5γ
The test can be described thus: Drug protection from pCMBS modification (SCAMP). The format is cell-based. The arrangement: key: +: SCAMP is Substituted Cysteine Modification and Protection and is positive when adding anesthetic to cysteine modifier significantly reduces persistent post-exposure effects due to covalent modification; -: Negative results are indicated by “–“ symbols. As to conditions: results of this study (*); some cells also cite [9]. Here is the method: (§1) Experiments were performed in ND-96 buffer at room temperature (20–22°C). Oocytes were placed in a low-volume (30µl) flow chamber and impaled with borosilicate microelectrodes filled with 3M KCl (resistance 0.5–3 MΩ) and voltage-clamped at −50 mV (model OC-725C; Warner Instruments, Hamden, CT, USA). Superfusate solutions in ND-96 were delivered at 2 ml/min from glass syringe reservoirs via computer-controlled valves (VC-8; Warner Instruments), a micro-manifold (ALA-VM8; ALA Scientific Instruments, Farmingdale, NY, USA), and PTFE tubing. Currents were digitized at 200 Hz on a computer running ClampEx v8.0 software (Molecular Devices, San Jose, CA, USA). Digitized traces were filtered with a 10-Hz low-pass Bessel function, leak corrected and analyzed for peak amplitude off-line using Clampfit v8 software (Molecular Devices).
(§2) Drug protection from pCMBS modification was assessed under pCMBS exposure conditions that produced approximately half of the maximal modification ratio for each mutant receptor, and a least a value of 3. This approach balanced the magnitude of functional modification signals (smaller with less pCMBS exposure) against the challenge of using a reversibly bound ligand to competitively block an irreversible covalent cysteine-modifying reaction. […] Each oocyte was used in a single SCAMP experiment. […] Etomidate was used as a positive control for anesthetic protection in α1M236C and β3M286C mutants and as a negative control in α1S270C, α1A291C, β3L231C, γ2S301C, γ2I242C, and γ2L246C mutants. R-mTFD-MPAB was used as a positive control in α1S270C, α1A291C, β3L231C, and γ2LS301C mutants and as a negative control in α1M236C and β3M286C mutants. For each cysteine mutant and protective drug combination, five oocytes were studied.
(§3) Non-linear least squares fits and statistical analyses were performed in Prism 10.4.0. (GraphPad Software, San Diego, CA, USA). […] Protection (steric inhibition of pCMBS modification) was inferred when anesthetics produced significant reductions in modification ratios relative to control (no anesthetic) values. The statistical significance threshold was p < 0.05.

The target in test [2] is T2, α1β3M286Cγ2L GABAA receptors (Homo sapiens, UniProt P14867+P18507+P28472, M311C).
T2 construct: expressed in transfected cells; host or cells: Xenopus oocytes injected with capped mRNA, 1α:1β:5γ
The test can be described thus: Drug protection from pCMBS modification (SCAMP). Conditions: results of this study (*); etomidate cell also cites [16]. The arrangement: key: +: SCAMP is Substituted Cysteine Modification and Protection and is positive when adding anesthetic to cysteine modifier significantly reduces persistent post-exposure effects due to covalent modification; -: Negative results are indicated by “–“ symbols. The format is cell-based. As for the experimental part:
as §1, §2, §3

Test [3] concerns the target T3, α1β3γ2L246C GABAA receptors (Homo sapiens, UniProt P14867+P18507+P28472, L285C).
T3 construct: expressed in transfected cells; host or cells: Xenopus oocytes injected with capped mRNAs mixed 1α:1β:5γ
Nature of the test: Drug protection from pCMBS modification (SCAMP). The format is cell-based. Also noted: key: +: Mutant-function studies are deemed positive when bulky mutations (mostly tryptophans) at the site significantly reduce positive modulation by anesthetics; -: Negative results are indicated by “–“ symbols. Conditions: results of this study (*); etomidate cell also cites [9]. As for the experimental part:
as §1, §2, §3

Test [4] concerns the target T4, α1β3L231Cγ2L GABAA receptors (Homo sapiens, UniProt P14867+P18507+P28472, L256C).
T4 construct: expressed in transfected cells; host or cells: Xenopus oocytes injected with capped mRNA, 1α:1β:5γ
The test can be described thus: Drug protection from pCMBS modification (SCAMP). The class given is cell-based. Also noted: key: +: Mutant-function studies are deemed positive when bulky mutations (mostly tryptophans) at the site significantly reduce positive modulation by anesthetics; -: Negative results are indicated by “–“ symbols. Conditions: results of this study (*); some cells also cite [9]. As for the experimental part: as §1, §2, §3

Test [5] relates to α1β3γ2L GABAA receptors, substituted cysteine at β3M227 (β3– M1). The arrangement: key: +: Mutant-function studies are deemed positive when bulky mutations (mostly tryptophans) at the site significantly reduce positive modulation by anesthetics; -: Negative results are indicated by “–“ symbols. As to conditions: previously reported; cited from earlier work.

T1 sequence (P14867 28-456 M263C): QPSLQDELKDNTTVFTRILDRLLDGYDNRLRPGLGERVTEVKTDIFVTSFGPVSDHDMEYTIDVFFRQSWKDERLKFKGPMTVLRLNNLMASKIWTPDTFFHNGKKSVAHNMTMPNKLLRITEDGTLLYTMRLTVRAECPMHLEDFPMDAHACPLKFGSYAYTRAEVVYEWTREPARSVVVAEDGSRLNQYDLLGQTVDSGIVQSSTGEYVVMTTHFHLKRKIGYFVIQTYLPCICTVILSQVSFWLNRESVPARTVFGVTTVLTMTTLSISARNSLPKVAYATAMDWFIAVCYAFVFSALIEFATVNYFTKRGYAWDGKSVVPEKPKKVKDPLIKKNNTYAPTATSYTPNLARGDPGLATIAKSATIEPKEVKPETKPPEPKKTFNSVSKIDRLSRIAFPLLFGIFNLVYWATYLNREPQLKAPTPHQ
T1 sequence (P28472 26-473): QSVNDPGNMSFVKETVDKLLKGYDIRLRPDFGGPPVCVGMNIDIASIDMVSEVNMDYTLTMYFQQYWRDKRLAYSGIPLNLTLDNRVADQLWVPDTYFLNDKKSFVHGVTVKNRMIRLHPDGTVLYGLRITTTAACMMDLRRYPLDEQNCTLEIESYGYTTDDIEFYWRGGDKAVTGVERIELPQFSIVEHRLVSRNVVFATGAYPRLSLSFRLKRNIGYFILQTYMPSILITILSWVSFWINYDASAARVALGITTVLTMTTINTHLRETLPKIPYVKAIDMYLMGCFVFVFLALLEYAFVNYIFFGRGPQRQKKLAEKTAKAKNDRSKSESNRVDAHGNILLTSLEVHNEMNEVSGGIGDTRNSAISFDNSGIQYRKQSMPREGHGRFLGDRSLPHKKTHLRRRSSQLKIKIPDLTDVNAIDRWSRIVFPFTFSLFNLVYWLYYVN
T1 sequence (P18507 40-475): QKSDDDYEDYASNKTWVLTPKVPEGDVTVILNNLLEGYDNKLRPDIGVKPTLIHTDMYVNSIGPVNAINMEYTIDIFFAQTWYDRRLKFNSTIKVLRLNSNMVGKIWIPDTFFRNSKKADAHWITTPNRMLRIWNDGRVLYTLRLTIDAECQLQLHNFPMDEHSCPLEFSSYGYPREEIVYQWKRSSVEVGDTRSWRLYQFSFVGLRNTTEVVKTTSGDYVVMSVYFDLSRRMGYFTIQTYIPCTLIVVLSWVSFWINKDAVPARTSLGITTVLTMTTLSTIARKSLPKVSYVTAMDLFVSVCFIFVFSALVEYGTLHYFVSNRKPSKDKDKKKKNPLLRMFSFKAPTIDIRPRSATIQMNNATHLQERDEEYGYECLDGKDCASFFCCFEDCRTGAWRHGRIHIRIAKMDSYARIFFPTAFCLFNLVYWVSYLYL
T3 sequence (P14867 28-456, stated change not applied): as the sequence (P14867 28-456 M263C) above, with C236M counted along it
T3 sequence (P28472 26-473): as the sequence (P28472 26-473) above
T3 sequence (P18507 40-475 L285C): as the sequence (P18507 40-475) above, with L246C counted along it
T2 sequence (P14867 28-456): as the sequence (P14867 28-456 M263C) above, with C236M counted along it
T2 sequence (P28472 26-473 M311C): as the sequence (P28472 26-473) above, with M286C counted along it
T2 sequence (P18507 40-475): as the sequence (P18507 40-475) above
T4 sequence (P14867 28-456): as the sequence (P14867 28-456 M263C) above, with C236M counted along it
T4 sequence (P28472 26-473 L256C): as the sequence (P28472 26-473) above, with L231C counted along it
T4 sequence (P18507 40-475): as the sequence (P18507 40-475) above

Regarding `CCOC(=O)c1cncn1[C@H](C)c1ccccc1` [etomidate, R-etomidate], the “SCAMP result, α1– (M1) M236” value in test [1] is “+^[9], *”. In addition, the “SCAMP result, β3+ (M2, M3) M286” value in test [2] is “+^[16], *”. Besides, in test [3], the “SCAMP result, γ2– (M1) L246” value was “-^[9], *”. In addition, the “SCAMP result, β3– (M1) L231” value in test [4] was “-^[9], *”. Further, in test [5], the “SCAMP result, β3– (M1) M227” value was “-^[9]”.
